According to patent US20220000157A1, “MOUTH-COATING FEEL ENHANCER” (AJINOMOTO CO., INC., priority 2019, published 2022):

Test system: panel of 3 experts
Assay: Sensory evaluation of strength of mouth-coating feel of mayonnaise, single compounds in ethanol (Experimental Example 14)
Assay type: in vivo
Details: Table 20
Excerpt: as a Positive Control, General Commercially Available mayonnaise (manufactured by Ajinomoto Co., Inc., trade name “Pure Select (registered trade mark) mayonnaise”, oil and fat content: 73%) added with ethanol (manufactured by Japan Alcohol Corporation) (0.001 wt %) was used.
As a negative control, commercially available mayonnaise (manufactured by Ajinomoto Co., Inc., trade name “Pure Select (registered trade mark) KOKUUMA (registered trade mark) 65% Calorie Cut”, oil and fat content: 23%) with a smaller oil and fat content as compared with positive control mayonnaise and added with ethanol (manufactured by Japan Alcohol Corporation) (0.001 wt %) was used.
Given amounts of β-caryophyllene, β-caryophyllene oxide, clovanediol, (1R,3Z,5R,9S)-4,11,11-trimethyl-8-methylenebicyclo[7.2.0]undec-3-en-5-ol, (1R,4R,5R,9S)-4,11,11-trimethyl-8-methylenebicyclo[7.2.0]undecane-4,5-diol, clovanediol-3-monoacetate, clovanediol diacetate, clovanediol-3-monoisovalerate, α-pinene, α-pinene oxide, limonene, limonene oxide, α-terpineol (clovanediol, (1R,3Z,5R,9S)-4,11,11-trimethyl-8-methylenebicyclo[7.2.0]undec-3-en-5-ol, (1R,4R,5R,9S)-4,11,11-trimethyl-8-methylenebicyclo[7.2.0]undecane-4,5-diol, clovanediol-3-monoacetate, clovanediol diacetate and clovanediol-3-monoisovalerate used were those obtained in the above-mentioned Synthetic Examples and others used were manufactured by Sigma-Aldrich) were dissolved in ethanol (manufactured by Japan Alcohol Corporation), the ethanol (0.001 wt %) was added to the commercially available mayonnaise used for preparation of the above-mentioned negative control, and the obtained mayonnaise was used as an evaluation sample. The amounts of β-caryophyllene, β-caryophyllene oxide, clovanediol, (1R,3Z,5R,9S)-4,11,11-trimethyl-8-methylenebicyclo[7.2.0]undec-3-en-5-ol, (1R,4R,5R,9S)-4,11,11-trimethyl-8-methylenebicyclo[7.2.0]undecane-4,5-diol, clovanediol-3-monoacetate, clovanediol diacetate, clovanediol-3-monoisovalerate, α-pinene, α-pinene oxide, limonene, limonene oxide, α-terpineol dissolved in ethanol were each adjusted to fall within the range of 0.01-1 ppm with respect to mayonnaise, as shown in the following Table 20.
For the evaluation of the strength of the mouth-coating feel, a panel of 3 experts ate each mayonnaise of positive control, negative control and evaluation sample, and graded the evaluation samples in 0.1 point increments in the range of 0.0 to 5.0 points, with the positive control being 5.0 points and the negative control being 0.0 point.

Compound | mouth-coating feel (in words)
CC1(C)C[C@H](O)[C@]23CC[C@@H](O)[C@](C)(CC[C@@H]12)C3 [clovanediol] | enhanced
CC1(C)C2CC3OC3(C)C1C2 (stereo not drawn) [α-pinene oxide] | enhanced
CC1=CCC(C(C)(C)O)CC1 (stereo not drawn) [α-terpineol] | enhanced
CC(=O)O[C@H]1CC(C)(C)[C@@H]2CC[C@]3(C)C[C@]12CC[C@H]3OC(C)=O [clovanediol diacetate] | enhanced
C=C1CC[C@H]2O[C@]2(C)CC[C@@H]2[C@@H]1CC2(C)C [β-caryophyllene oxide] | enhanced
C=C1CC[C@@H](O)[C@](C)(O)CC[C@@H]2[C@@H]1CC2(C)C [(1R,4R,5R,9S)-4,11,11-trimethyl-8-methylenebicyclo[7.2.0]undecane-4,5-diol] | enhanced
C=C1CC[C@@H](O)/C(C)=C\C[C@@H]2[C@@H]1CC2(C)C [(1R,3Z,5R,9S)-4,11,11-trimethyl-8-methylenebicyclo[7.2.0]undec-3-en-5-ol] | enhanced
CC(C)CC(=O)O[C@H]1CC(C)(C)[C@@H]2CC[C@]3(C)C[C@]12CC[C@H]3O [clovanediol-3-monoisovalerate] | enhanced
C=C(C)C1CCC2(C)OC2C1 (stereo not drawn) [limonene oxide] | enhanced
CC(=O)O[C@H]1CC(C)(C)[C@@H]2CC[C@]3(C)C[C@]12CC[C@H]3O [clovanediol-3-monoacetate] | enhanced

Same assay, conditions: concentration 0.01 ppm with respect to mayonnaise

Compound | strength of mouth-coating feel [points]
C=C1CC/C=C(\C)CC[C@@H]2[C@@H]1CC2(C)C [β-caryophyllene, reference compound] | 0.0
C=C1CC[C@H]2O[C@]2(C)CC[C@@H]2[C@@H]1CC2(C)C [β-caryophyllene oxide] | 1.5

Same assay, conditions: concentration 0.1 ppm with respect to mayonnaise

Compound | strength of mouth-coating feel [points]
C=C1CC/C=C(\C)CC[C@@H]2[C@@H]1CC2(C)C [β-caryophyllene, reference compound] | 0.0
C=C1CC[C@H]2O[C@]2(C)CC[C@@H]2[C@@H]1CC2(C)C [β-caryophyllene oxide] | 2.6

Same assay, conditions: concentration 1 ppm with respect to mayonnaise

Compound | strength of mouth-coating feel [points]
C=C1CC/C=C(\C)CC[C@@H]2[C@@H]1CC2(C)C [β-caryophyllene, reference compound] | 0.1
CC1(C)C[C@H](O)[C@]23CC[C@@H](O)[C@](C)(CC[C@@H]12)C3 [clovanediol] | 3.1
CC1(C)C2CC3OC3(C)C1C2 (stereo not drawn) [α-pinene oxide] | 3.3
CC1=CCC(C(C)(C)O)CC1 (stereo not drawn) [α-terpineol] | 2.0
C=C(C)[C@H]1CC=C(C)CC1 [limonene, reference compound] | 0.0
CC(=O)O[C@H]1CC(C)(C)[C@@H]2CC[C@]3(C)C[C@]12CC[C@H]3OC(C)=O [clovanediol diacetate] | 3.2
C=C1CC[C@H]2O[C@]2(C)CC[C@@H]2[C@@H]1CC2(C)C [β-caryophyllene oxide] | 3.6
C=C1CC[C@@H](O)[C@](C)(O)CC[C@@H]2[C@@H]1CC2(C)C [(1R,4R,5R,9S)-4,11,11-trimethyl-8-methylenebicyclo[7.2.0]undecane-4,5-diol] | 3.3
C=C1CC[C@@H](O)/C(C)=C\C[C@@H]2[C@@H]1CC2(C)C [(1R,3Z,5R,9S)-4,11,11-trimethyl-8-methylenebicyclo[7.2.0]undec-3-en-5-ol] | 3.0
CC(C)CC(=O)O[C@H]1CC(C)(C)[C@@H]2CC[C@]3(C)C[C@]12CC[C@H]3O [clovanediol-3-monoisovalerate] | 3.2
CC1=CCC2CC1C2(C)C (stereo not drawn) [α-pinene, reference compound] | 0.6
C=C(C)C1CCC2(C)OC2C1 (stereo not drawn) [limonene oxide] | 2.8
CC(=O)O[C@H]1CC(C)(C)[C@@H]2CC[C@]3(C)C[C@]12CC[C@H]3O [clovanediol-3-monoacetate] | 3.0
